# Source: patent publication US20180161288A1, “TAU AGGREGATION INHIBITOR” (National Center for Geriatrics and Gerontology, priority 2011, published 2018)
# What was measured:
# tau [1] = target: T1, tau (Homo sapiens, UniProt P10636); experiment: sucrose-density gradient centrifugation with SDS-PAGE western blotting of tau; format: biochemical; conditions: for amount of tau (granular and filamentous tau aggregates) fractionated into Fr3 and subsequent fractions: FIG. 11; for amount of tau in fractions Fr3, 4, 5, and 6: compound 100 μM, FIG. 2
# tau [2] = target: T1, tau; experiment: thioflavine T stain of heparin-induced tau aggregation; format: biochemical; conditions: 10 μM tau
# tau [3] = target: T1, tau; experiment: quantification of insoluble tau pellet after centrifugation at 250000 xg; format: biochemical; conditions: pellet after 250000 xg for 2 h
# Procedure: For this analysis, 10-μM tau, a compound (1 μM, 10 μM, or 100 μM), and thioflavine T (a beta-pleated sheet structure-specific detection reagent) were mixed together. Thereafter, heparin, which is a tau aggregation inducer, was added to the mixture, and the resulting mixture was incubated at 37° C., thereby allowing tau to aggregate. Subsequently, the thioflavine T activity in an incubation sample was measured at various times to investigate tau aggregation inhibition effects by the compounds.
# To further investigate the effects of these nine compounds on tau aggregation specifically, samples that had been incubated at 37° C. were centrifuged at 250000 ×g for 2 h, the resultant pellets were obtained so that the amount of insoluble tau were quantified.
# tau [4] = target: T1, tau; experiment: atomic force microscope observation of tau aggregation; format: biochemical; conditions: sample incubated for 120 hours; FIG. 12
# Procedure: Thereafter, to analyze a change of tau aggregation by d-isoprenaline morphologically, the sample was investigated by using an atomic force microscope. A tau aggregation sample that had been incubated for 120 hours was loaded on a mica board and adsorbed thereon. […] FIG. 12A is a photograph of a control, FIG. 12B is a photograph showing effects of d-isoprenaline on a tau aggregation sample, and FIG. 12C is a graph of measured major axes of tau aggregation.
# P301L tau Tg mice = experiment: sarkosyl-insoluble tau in brains of P301L tau Tg mice; format: in vivo
# WT tau [5] = target: T2, WT tau (Homo sapiens, UniProt P10636); experiment: tau and acetylated tubulin in microtubule fraction of WT tau-expressing COS-7 cells; format: cell-based, African green monkey; conditions: 10 μM, 24 hours
# T2 construct: expressed in transfected cells; host or cells: COS-7 (African green monkey kidney)
# Procedure: The homogenates were then centrifuged at 3000×g for 5 min at 25° C., and thea supernatant was obtained as a total fraction. The total fraction was further centrifuged at 100000×g for 20 min at 20° C., and a pellet (a microtubule fraction) was obtained. In this manner, the microtubule fraction was taken from the COS-7 cells expressing WT tau, and acetylated tubulin serving as an index of tau and microtubule stabilization was detected.
# human P301L mutant tau [6] = target: T3, human P301L mutant tau (Homo sapiens, UniProt P10636, P618L); experiment: SDS-insoluble tau in Neuro2a cells expressing P301L mutant tau; format: cell-based; conditions: Neuro2a cells, 0.01, 0.1 and 1 μM isoprenaline for 48 hours; FIG. 3
# T3 construct: expressed in transfected cells
# WT tau [7] = target: T2, WT tau; experiment: MC1 dot blotting and AT8 phosphorylation in WT tau-expressing COS-7 cells; format: cell-based, African green monkey
# From the text: Tau phosphorylations at AT8 sites are known to induce a tau conformational change (that can be detected with the MC1 antibody) observed in AD brains. Thus, WT tau was expressed in COS-7 cells (derived from African green monkey kidney), and a tau conformational change was detected by dot blotting using the MC1 antibody. The dot blotting is a technique of fixing protein to a nitrocellulose membrane or a PVDF membrane without separation through electrophoresis and specifically quantitating the protein amount with enzyme-labeled antibodies.
# WT tau Tg mice = experiment: tau dephosphorylation (tau1 antibody) in TBS-soluble fractions from WT tau Tg mice; format: in vivo; conditions: TBS-soluble fraction; FIG. 9
# From the text: A change in tau phosphorylation in TBS-soluble fractions from WT tau Tg mice was investigated.
# human P301L mutant tau [8] = target: T3, human P301L mutant tau; experiment: tau phosphorylation (AT8) in RIPA-soluble fractions of Neuro2a cells; format: cell-based; conditions: RIPA-soluble fraction, FIG. 4
# Procedure: As cells, Neuro2a cell lines in which human P301L mutant tau (i.e., mutant tau in which 301st proline of tau is changed to leucine) is expressed in stable were used. […] Then, SDS-insoluble fractions were obtained so that a change in the amounts of tau was observed.
# In addition, changes of tau phosphorylation in radio-immunoprecipitation assay (RIPA) buffer-soluble fractions obtained from similar cells were analyzed. […] The composition of the RIPA buffer was 50 mM Tris-HCl (pH7.4), 150 mM sodium chloride, 0.25 w/v % sodium deoxycholate, 1 mM EGTA, and 1.0 w/v % NP-40 substitute.
# T2 sequence (P10636 1-441 isoform P10636-8): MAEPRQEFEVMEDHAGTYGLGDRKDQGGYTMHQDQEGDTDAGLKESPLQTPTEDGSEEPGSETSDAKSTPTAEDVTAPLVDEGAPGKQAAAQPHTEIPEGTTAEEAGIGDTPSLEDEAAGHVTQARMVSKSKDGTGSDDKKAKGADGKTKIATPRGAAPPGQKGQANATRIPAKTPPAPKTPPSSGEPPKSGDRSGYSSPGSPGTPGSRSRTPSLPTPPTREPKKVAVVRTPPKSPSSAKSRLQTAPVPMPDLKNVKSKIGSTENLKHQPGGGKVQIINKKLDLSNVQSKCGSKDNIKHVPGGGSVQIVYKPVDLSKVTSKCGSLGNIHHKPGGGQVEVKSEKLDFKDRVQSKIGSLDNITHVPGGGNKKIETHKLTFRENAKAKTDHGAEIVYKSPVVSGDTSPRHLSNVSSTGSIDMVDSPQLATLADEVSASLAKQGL
# T1 sequence (P10636 1-441 isoform P10636-8): as above
# T3 sequence (P10636 1-441 isoform P10636-8 P301L): as the sequence (P10636 1-441 isoform P10636-8) above, with P301L counted along it
structure (smiles),measurement,setting,value
"CC(C)NCC(O)c1ccc(O)c(O)c1 (racemic) [d/l-isoprenaline, mixture of (S)-(+)-isoprenaline and (R)-(−)-isoprenaline]",amount of tau (granular and filamentous tau aggregates) fractionated into Fr3 and subsequent fractions,tau [1],apparently reduced the amount of tau
same,thioflavine T activity,"tau [2]; compound 1-100 μM, FIG. 10",inhibition of thioflavine T activity
CNC[C@H](O)c1ccc(O)c(O)c1 [(R)-(−)-epinephrine],"amount of tau in fractions Fr3, 4, 5, and 6",tau [1],"reduced the amount of tau in fractions Fr3, 4, 5, and 6"
same,thioflavine T activity,"tau [2]; FIG. 1, heparin, 37° C.",significantly reduced thioflavine T activity
same,amount of insoluble tau,tau [3],reduced the amount of insoluble tau in a concentration dependent manner
"CC(C)NC[C@@H](O)c1ccc(O)c(O)c1 [d-isoprenaline, (S)-(+)-isoprenaline]",number of tau aggregates having major axes of 20 nm or more,tau [4],apparently reduced the number of tau aggregates
same,amount of tau (granular and filamentous tau aggregates) fractionated into Fr3 and subsequent fractions,tau [1],apparently reduced the amount of tau
same,thioflavine T activity,"tau [2]; compound 1-100 μM, FIG. 10",inhibition of thioflavine T activity similar to that of d/l-isoprenaline
same,amount of insoluble tau in cerebral cortices,"P301L tau Tg mice; mice aged 20-21 months, 2.168 mg/g fed in mash for three months, FIGS. 13, 14",apparently reduced the amount of insoluble tau
same,amount of insoluble tau in hippocampi,"P301L tau Tg mice; mice aged 20-21 months, 2.168 mg/g fed in mash for three months, FIGS. 15, 16",apparently reduced the amount of insoluble tau
NCCc1ccc(O)c(O)c1 [dopamine],thioflavine T activity,"tau [2]; FIG. 1, heparin, 37° C.",significantly reduced thioflavine T activity
CC(C)NCC(O)c1ccc(O)c(O)c1 (centres unmarked) [isoprenaline],amount of tau in the microtubule fraction,WT tau [5]; FIG. 6A-C,increased the amount of tau in the microtubule fraction
same,amount of acetylated tubulin,WT tau [5]; FIG. 6D-F,further increased the amount of acetylated tubulin
same,amount of SDS-insoluble tau,human P301L mutant tau [6],reduced the amounts of SDS-insoluble tau
same,tau phosphorylation (AT8 sites),WT tau [7]; FIG. 5C,also reduced phosphorylation
same,tau conformational change detected with MC1 antibody,"WT tau [7]; TBS-soluble fraction, FIG. 5A, 5B",reduced the tau conformational change
same,dephosphorylation of tau labeled by tau1 antibody,WT tau Tg mice,induced dephosphorylation of tau
same,"amount of tau in fractions Fr3, 4, 5, and 6",tau [1],"reduced the amount of tau in fractions Fr3, 4, 5, and 6"
same,thioflavine T activity,"tau [2]; FIG. 1, heparin, 37° C.",significantly reduced thioflavine T activity
same,amount of sarkosyl-insoluble tau in the brains,"P301L tau Tg mice; 1.5 mg/g fed mixed in mash for three months, FIG. 7",reduced the amount of sarkosyl-insoluble tau
same,tau phosphorylation (AT8),human P301L mutant tau [8],reduced tau phosphorylation
[Cl-].[Li+] [lithium chloride],amount of SDS-insoluble tau,human P301L mutant tau [6],reduced the amounts of SDS-insoluble tau
NC[C@H](O)c1ccc(O)c(O)c1 [norepinephrine],thioflavine T activity,"tau [2]; FIG. 1, heparin, 37° C.",significantly reduced thioflavine T activity
